Holding throughout (test): Screen Quest Fluo-8 No Wash Calcium Assay (Bz-ATP evoked Ca2+ influx, FLIPR)
Type in all cases: cell-based

In test [1] the target is T1, P2X7 receptor (Mus musculus, UniProt Q9Z1M0).
T1 construct: mP2X7 (IC50; nM); other: mP2X7; HEK-293 cells stably transfected with P2X7 receptor, Bz-ATP at EC80, Fluo-8 NW; potency
T1 sequence (Q9Z1M0 1-595): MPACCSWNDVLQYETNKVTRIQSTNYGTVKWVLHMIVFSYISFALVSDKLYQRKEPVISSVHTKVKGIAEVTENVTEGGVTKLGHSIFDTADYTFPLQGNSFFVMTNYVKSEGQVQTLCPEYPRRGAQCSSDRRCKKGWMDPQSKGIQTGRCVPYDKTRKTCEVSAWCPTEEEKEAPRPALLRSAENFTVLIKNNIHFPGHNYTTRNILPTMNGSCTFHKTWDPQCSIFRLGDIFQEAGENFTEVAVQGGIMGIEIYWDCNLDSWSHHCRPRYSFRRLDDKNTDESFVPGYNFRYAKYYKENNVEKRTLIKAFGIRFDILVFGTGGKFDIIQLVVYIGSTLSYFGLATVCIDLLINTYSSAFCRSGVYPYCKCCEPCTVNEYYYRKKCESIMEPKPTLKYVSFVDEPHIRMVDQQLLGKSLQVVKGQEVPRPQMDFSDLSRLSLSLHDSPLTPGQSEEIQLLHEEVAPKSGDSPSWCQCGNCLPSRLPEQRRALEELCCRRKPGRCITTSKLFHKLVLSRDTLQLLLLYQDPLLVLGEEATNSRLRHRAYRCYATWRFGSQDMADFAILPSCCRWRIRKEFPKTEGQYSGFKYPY
The settings on record: mP2X7; HEK-293 cells stably transfected with P2X7 receptor, Bz-ATP at EC80, Fluo-8 NW; potency ranges A-D. The protocol:
(§1) Extracellular binding of Bz-ATP to P2X7 receptor opens the channel and allows Ca2+ influx into the cells. […] Once inside the cell, the lipophilic blocking groups of Fluo-8 are cleaved by non-specific cell esterases, resulting in a negatively-charged fluorescent dye that stays inside cells. Its fluorescence increases upon binding to calcium.
(§2) HEK-293 cells stably transfected with P2X7 receptor were seeded overnight in growth medium at 10,000 to 20,000 cell/well in 384-well plate. 24 hours later, the medium was removed and the cells were pre-loaded at RT for 1 hour with 20 μL/w of Fluo-8 NW. Then 10 μL/w of tests compounds and reference antagonist A438079 at 3×-concentration were injected with the […] and the kinetic response over a period of five minutes was monitored. A second injection of 15 μL/w of 3× reference activator (Bz-ATP at EC80) was performed with the […] and the signal of the emitted fluorescence was recorded for additional three minutes. All the experiment was carried out in a Low Divalent Cation Assay Buffer (0.3 mM Ca^2+ and 0 mM Mg^2+). The effect of the test compounds was measured as percent inhibition vs the reference antagonist and IC50 values were calculated accordingly.

In test [2] the target is T2, P2X7 receptor (Rattus norvegicus, UniProt Q64663).
T2 construct: rP2X7 (IC50; nM); other: rP2X7; HEK-293 cells stably transfected with P2X7 receptor, Bz-ATP at EC80, Fluo-8 NW; potency
T2 sequence (Q64663 1-595): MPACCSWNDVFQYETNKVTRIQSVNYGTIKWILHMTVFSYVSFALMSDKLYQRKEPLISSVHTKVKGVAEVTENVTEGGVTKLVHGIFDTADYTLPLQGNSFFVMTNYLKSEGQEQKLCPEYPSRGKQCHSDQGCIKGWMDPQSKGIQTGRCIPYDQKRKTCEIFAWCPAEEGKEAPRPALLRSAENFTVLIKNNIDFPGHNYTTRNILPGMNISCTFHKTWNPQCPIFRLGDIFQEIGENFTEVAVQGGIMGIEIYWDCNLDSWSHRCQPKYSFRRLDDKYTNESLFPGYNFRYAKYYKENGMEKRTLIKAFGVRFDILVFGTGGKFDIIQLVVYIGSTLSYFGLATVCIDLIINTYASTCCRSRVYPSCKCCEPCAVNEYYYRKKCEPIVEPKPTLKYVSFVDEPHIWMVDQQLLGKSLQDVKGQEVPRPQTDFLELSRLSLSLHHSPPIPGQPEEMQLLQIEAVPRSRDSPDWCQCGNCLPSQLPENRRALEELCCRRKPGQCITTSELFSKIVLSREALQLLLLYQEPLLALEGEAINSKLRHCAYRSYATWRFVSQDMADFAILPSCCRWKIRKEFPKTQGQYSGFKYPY
The settings on record: rP2X7; HEK-293 cells stably transfected with P2X7 receptor, Bz-ATP at EC80, Fluo-8 NW; potency ranges A-D. The protocol:
as §1, §2

Test [3] concerns the target T3, P2X7 receptor (Homo sapiens, UniProt Q99572).
T3 sequence (Q99572 1-595): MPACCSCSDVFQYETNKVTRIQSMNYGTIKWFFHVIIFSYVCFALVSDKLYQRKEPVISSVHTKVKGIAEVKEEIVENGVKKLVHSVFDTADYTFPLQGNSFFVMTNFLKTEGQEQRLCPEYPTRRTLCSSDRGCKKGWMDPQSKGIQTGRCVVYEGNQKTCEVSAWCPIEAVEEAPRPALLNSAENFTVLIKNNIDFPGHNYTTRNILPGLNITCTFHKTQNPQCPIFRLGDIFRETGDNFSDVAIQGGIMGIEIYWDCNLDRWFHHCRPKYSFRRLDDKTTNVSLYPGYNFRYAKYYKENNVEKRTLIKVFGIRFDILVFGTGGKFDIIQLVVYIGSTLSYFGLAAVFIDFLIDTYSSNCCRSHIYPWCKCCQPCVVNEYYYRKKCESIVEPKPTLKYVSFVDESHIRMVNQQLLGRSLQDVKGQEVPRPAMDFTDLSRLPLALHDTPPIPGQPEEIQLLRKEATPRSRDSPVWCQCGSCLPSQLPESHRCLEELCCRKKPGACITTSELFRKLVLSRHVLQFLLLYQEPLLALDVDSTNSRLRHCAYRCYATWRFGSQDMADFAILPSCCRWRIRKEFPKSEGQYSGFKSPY
The arrangement: hP2X7 (IC50; nM); other: hP2X7; HEK-293 cells stably transfected with P2X7 receptor, Bz-ATP at EC80, Fluo-8 NW; potency. Conditions: hP2X7; HEK-293 cells stably transfected with P2X7 receptor, Bz-ATP at EC80, Fluo-8 NW; potency ranges A-D. The protocol:
as §1, §2

Each structure is given as a SMILES string. Bounds are passed on as bounds.

For `O=c1onc(Cc2c(F)cccc2Cl)n1Cc1ncc(F)cn1` [Example 45, 3-[(2-chloro-6-fluorophenyl)methyl]-4-[(5-fluoropyrimidin-2-yl)methyl]-4,5-dihydro-1,2,4-oxadiazol-5-one], the half-inhibitory concentration (IC50) on P2X7 receptor [1], at P2X7 receptor [2] and at P2X7 receptor [3] was greater than 10000 nM in each case.

Take `O=c1onc(CN2CCOc3ccccc32)n1Cc1ccc(F)cc1` [Example 228, 3-(3,4-dihydro-2H-1,4-benzoxazin-4-ylmethyl)-4-[(4-fluorophenyl)methyl]-4,5-dihydro-1,2,4-oxadiazol-5-one]: the values for the IC50 on P2X7 receptor [1], on P2X7 receptor [2] and at P2X7 receptor [3] were 200 to 1000 nM, 200 to 1000 nM and less than 200 nM, respectively.

Take `O=c1onc(Cc2c(F)cccc2Cl)n1Cc1ccc(C(F)(F)F)nc1` [Example 37, 3-[(2-chloro-6-fluorophenyl)methyl]-4-{[6-(trifluoromethyl)pyridin-3-yl]methyl}-4,5-dihydro-1,2,4-oxadiazol-5-one]: the IC50 at P2X7 receptor [1] is 1000 to 10000 nM; on P2X7 receptor [2], greater than 10000 nM; at P2X7 receptor [3], 1000 to 10000 nM.

Regarding `O=c1onc(Cc2ccccc2)n1Cc1ccc(F)cc1` [Example 108, 3-benzyl-4-[(4-fluorophenyl)methyl]-4,5-dihydro-1,2,4-oxadiazol-5-one], the IC50 on P2X7 receptor [1], at P2X7 receptor [2] and at P2X7 receptor [3] was 1000 to 10000 nM throughout.

As for `O=c1onc(Cc2ccc(F)cc2)n1Cc1ccc(F)cc1` [Example 54, bis[(4-fluorophenyl)methyl]-4,5-dihydro-1,2,4-oxadiazol-5-one], the half-maximal inhibitory concentration (IC50) on P2X7 receptor [1] is greater than 10000 nM; at P2X7 receptor [2], greater than 10000 nM; at P2X7 receptor [3] it was 1000 to 10000 nM.

As for `O=c1onc(CC2CCC(F)(F)CC2)n1CCc1ccccc1` [Example 172, 3-[(4,4-difluorocyclohexyl)methyl]-4-(2-phenylethyl)-4,5-dihydro-1,2,4-oxadiazol-5-one], the half-inhibitory concentration (IC50) is greater than 10000 nM at P2X7 receptor [1], 1000 to 10000 nM at P2X7 receptor [2] and greater than 10000 nM on P2X7 receptor [3].

With `COc1cc(Cn2c(Cc3ccc(F)cc3)noc2=O)cc(OC)c1` [Example 4, 4-[(3,5-dimethoxyphenyl)methyl]-3-[(4-fluorophenyl)methyl]-4,5-dihydro-1,2,4-oxadiazol-5-one], the IC50 on P2X7 receptor [1], at P2X7 receptor [2] and on P2X7 receptor [3] was greater than 10000 nM in each case.

Take `CC(c1ccc(F)cc1)n1c(CC2CCC(F)(F)CC2)noc1=O` (stereo not drawn) [Example 164, 3-[(4,4-difluorocyclohexyl)methyl]-4-[1-(4-fluorophenyl)ethyl]-4,5-dihydro-1,2,4-oxadiazol-5-one]: the IC50 on P2X7 receptor [1], on P2X7 receptor [2] and on P2X7 receptor [3] was 1000 to 10000 nM throughout.

Regarding `O=c1onc(CC2CCCCC2)n1Cc1ccc(F)cc1` [Example 131, 3-(cyclohexylmethyl)-4-[(4-fluorophenyl)methyl]-4,5-dihydro-1,2,4-oxadiazol-5-one], the IC50 at P2X7 receptor [1], at P2X7 receptor [2] and at P2X7 receptor [3] was 1000 to 10000 nM throughout.

For `O=c1onc(Cc2cccc(F)c2)n1CC1CCC(F)(F)CC1` [Example 151, 4-[(4,4-difluorocyclohexyl)methyl]-3-[(3-fluorophenyl)methyl]-4,5-dihydro-1,2,4-oxadiazol-5-one], the half-maximal inhibitory concentration (IC50) was 1000 to 10000 nM at P2X7 receptor [1], 200 to 1000 nM on P2X7 receptor [2] and 200 to 1000 nM at P2X7 receptor [3].

For the compound `O=c1onc(Cc2c(F)cccc2Cl)n1CC1CCC(F)(F)C1` (single isomer, unassigned) [Example 148, 3-(2-chloro-6-fluorobenzyl)-4-[(3,3-difluorocyclopentyl)methyl]-1,2,4-oxadiazol-5(4H)-one], the 50% inhibitory concentration (IC50) on P2X7 receptor [1] was 200 to 1000 nM; at P2X7 receptor [2], less than 200 nM; on P2X7 receptor [3] it was less than 200 nM.

For `O=c1onc(Cc2c(F)cccc2Cl)n1CCCN1CCCCC1` [Example 180, 3-[(2-chloro-6-fluorophenyl)methyl]-4-[3-(piperidin-1-yl)propyl]-4,5-dihydro-1,2,4-oxadiazol-5-one], the half-maximal inhibitory concentration (IC50) on P2X7 receptor [1], on P2X7 receptor [2] and on P2X7 receptor [3] was greater than 10000 nM each time.

`O=c1onc(CC2CCC(F)(F)CC2)n1Cc1ccc(C(F)(F)F)nc1` [Example 189, 3-[(4,4-difluorocyclohexyl)methyl]-4-{[6-(trifluoromethyl)pyridin-3-yl]methyl}-4,5-dihydro-1,2,4-oxadiazol-5-one]: the IC50 at P2X7 receptor [1], on P2X7 receptor [2] and at P2X7 receptor [3] was greater than 10000 nM in each case.

Turning to `O=c1onc(Cc2c(F)cccc2Cl)n1Cc1ncco1` [Example 32, 3-[(2-chloro-6-fluorophenyl)methyl]-4-(1,3-oxazol-2-ylmethyl)-4,5-dihydro-1,2,4-oxadiazol-5-one], the IC50 at P2X7 receptor [1], at P2X7 receptor [2] and at P2X7 receptor [3] was greater than 10000 nM throughout.

Turning to `O=c1onc(CN2CCCCC2)n1Cc1ccc(F)cc1` [Example 240, 4-[(4-fluorophenyl)methyl]-3-(piperidin-1-ylmethyl)-4,5-dihydro-1,2,4-oxadiazol-5-one], the IC50 at P2X7 receptor [1] was greater than 10000 nM; at P2X7 receptor [2] it was 1000 to 10000 nM; at P2X7 receptor [3], greater than 10000 nM.

In the case of `CC(c1ccccc1)n1c(Cc2ccc(F)cc2)noc1=O` (stereo not drawn) [Example 10, 3-[(4-fluorophenyl)methyl]-4-(1-phenylethyl)-4,5-dihydro-1,2,4-oxadiazol-5-one], the 50% inhibitory concentration (IC50) at P2X7 receptor [1] was greater than 10000 nM; at P2X7 receptor [2] it was 1000 to 10000 nM; at P2X7 receptor [3], 200 to 1000 nM.

Consider `O=c1onc(CN2CCCCC2)n1Cc1c(F)cccc1Cl` [Example 241, 4-[(2-chloro-6-fluorophenyl)methyl]-3-[(piperidin-1-yl)methyl]-1,2,4-oxadiazol-5(4H)-one], for which the half-inhibitory concentration (IC50) on P2X7 receptor [1] is 200 to 1000 nM; on P2X7 receptor [2] it was less than 200 nM; at P2X7 receptor [3], 200 to 1000 nM.

What is called IC50 is the midpoint of a concentration-inhibition curve.

Values taken from patent publication US11623919B2, “Heterocyclic P2X7 antagonists” (AXXAM S.P.A., priority 2017, dated 2023).
